Marks after values point to notes of the source that are not given here.
Key:
α1D-adrenoreceptors = target: T1, α1D-adrenoreceptors (Rattus norvegicus, UniProt P23944); experiment: Functional bioassay, isolated rat aorta, noradrenaline contraction; format: biochemical; parameters: had aorta removed, denuded of endothelium and incubated in the Krebs-Henseleit solution; from tissue; host or cells: isolated rat aorta rings; conditions: noradrenaline as agonist
T1 sequence (P23944 1-561): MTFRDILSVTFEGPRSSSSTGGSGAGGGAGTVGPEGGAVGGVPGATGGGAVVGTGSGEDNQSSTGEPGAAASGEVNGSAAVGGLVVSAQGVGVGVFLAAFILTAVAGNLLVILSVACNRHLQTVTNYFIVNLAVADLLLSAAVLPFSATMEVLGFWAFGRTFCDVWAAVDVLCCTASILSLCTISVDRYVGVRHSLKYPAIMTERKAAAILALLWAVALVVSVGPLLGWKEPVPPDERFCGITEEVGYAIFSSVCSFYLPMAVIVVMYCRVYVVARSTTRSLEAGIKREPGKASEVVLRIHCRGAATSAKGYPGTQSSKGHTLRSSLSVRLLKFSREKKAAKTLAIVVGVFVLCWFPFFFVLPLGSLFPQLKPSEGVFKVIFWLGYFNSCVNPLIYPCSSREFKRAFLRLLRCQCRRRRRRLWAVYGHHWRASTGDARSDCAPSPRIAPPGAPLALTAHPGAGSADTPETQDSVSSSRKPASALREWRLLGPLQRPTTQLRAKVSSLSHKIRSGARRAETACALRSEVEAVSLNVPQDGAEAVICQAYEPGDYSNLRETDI
Method: Finally, the influence on α1D-adrenoreceptors was investigated using the isolated rat aorta. […] The aorta rings were maintained at optimal tension of 2.0 g. During 3 h of equilibration tissues were stimulated with noradrenaline three times (0.3 μM). Two cumulative concentration-response curves to noradrenaline, at an interval of 60 min, were established on each tissue both in the presence and absence of antagonist. The incubation with antagonists went on for 30 min. The experiments were carried out in the constant presence of yohimbine (0.1 μM) and propranolol (1 μM) to block α2- and β-adrenoceptors, respectively.
Data are means ± S.E.M. of at least 4 separate experiments. To establish Hill slopes for the agonist concentration–response curves and calculate EC50 values, curves were fitted to all the data by non-linear regression. The EC50 value in the presence and absence of antagonists was used to ascertain the concentration ratio (CR). Schild analysis was performed.

[1] = test system: blood pressure in normotensive rats; experiment: Influence on blood pressure in normotensive rats; format: in vivo, rat; parameters: Systolic pressure / Diastolic pressure: unit not given beside the values; conditions: for Diastolic pressure / Systolic pressure: anesthetized normotensive rats
Method: The tested compounds were administered i.p. after 15 min of stabilization period. The compounds were administered at the dose 10 mg/kg.

[2] = test system: adrenaline-induced arrhythmia in rats; experiment: Prophylactic antiarrhythmic activity in adrenaline-induced arrhythmia; format: in vivo, rat
Method: The studied compounds were administered i.p. 45 min before the injection of adrenaline, calcium chloride, or barium chloride. The electrocardiogram (ECG) was recorded during the first 2 min as well as in the 5th, 10th, and 15th min after the arrhythmogen injection. […]

normal ECG in rats = experiment: The effect on normal electrocardiogram in rats; format: in vivo, rat; conditions: anesthetized rats, i.p. at ED84
Method: The experiment was carried out to exclude the influence of tested compounds on normal ECG. […] The influence on QRS complex, PQ interval, heart rate (RR), and QTc interval was determined.

[3] = lowest hypotensive dose i.p., 5 min
[4] = lowest hypotensive dose i.p., 10 min
[5] = lowest hypotensive dose i.p., 20 min
[6] = lowest hypotensive dose i.p., 30 min
[7] = lowest hypotensive dose i.p., 40 min
[8] = lowest hypotensive dose i.p., 50 min
[9] = lowest hypotensive dose i.p., 60 min
[10] = lowest hypotensive dose i.p., Control (before administration)
[11] = normotensive rats, lowest hypotensive dose i.p., period of significant effect
[12] = dose 2.5 mg/kg i.p. 45 min before adrenaline 20 μg/kg i.v.
[13] = dose 5 mg/kg i.p. 45 min before adrenaline 20 μg/kg i.v.
[14] = dose 10 mg/kg i.p. 45 min before adrenaline 20 μg/kg i.v.

COc1ccccc1N1CCN(CCOCCOc2c(C)cccc2Cl)CC1.Cl [HBK-15, 1-[(2-chloro-6-methylphenoxy)ethoxyethyl]-4-(2-methoxyphenyl)piperazine hydrochloride]
Schild slope ± S.E.M., α1D (α1D-adrenoreceptors): 1.09 ± 0.09
Kb (α1D-adrenoreceptors; read-out: pA2 ± S.E.M., α1D (converted)): 1.26 nM
Diastolic pressure [1, 3]: 96.3 ± 3.7^c
Systolic pressure [1, 3]: 121.2 ± 4.8^c
Diastolic pressure [1, 4]: 92.0 ± 4.3^c
Systolic pressure [1, 4]: 116.3 ± 6.0^c
Diastolic pressure [1, 5]: 88.5 ± 3.5^c
Systolic pressure [1, 5]: 112.0 ± 5.5^c
Diastolic pressure [1, 6]: 88.3 ± 2.9^c
Systolic pressure [1, 6]: 112.2 ± 4.2^c
Diastolic pressure [1, 7]: 91.0 ± 3.2^c
Systolic pressure [1, 7]: 112.5 ± 4.4^c
Diastolic pressure [1, 8]: 90.2 ± 2.7^c
Systolic pressure [1, 8]: 113.2 ± 3.7^c
Diastolic pressure [1, 9]: 93.0 ± 1.2^c
Systolic pressure [1, 9]: 117.3 ± 3.0^c
Diastolic pressure [1, 10]: 110.3 ± 2.2
Systolic pressure [1, 10]: 139.0 ± 2.7
lowest hypotensive dose ([1]; normotensive rats, lowest dose significantly lowering systolic and diastolic blood pressure): 5.0 mg/kg
reduction of diastolic blood pressure [1, 11]: 13−20%
reduction of systolic blood pressure [1, 11]: 13−19%
ED50 ([2]; Rattus norvegicus, read-out: ED50 (confidence limits)): 4.8 mg/kg
Bigeminy (%) [2, 12]: 33.3%
Blocks (%) [2, 12]: 66.7%
Bradycardia (%) [2, 12]: 66.7%
Extrasystoles (%) [2, 12]: 66.7%
Bigeminy (%) [2, 13]: 16.7%
Blocks (%) [2, 13]: 50.0%
Bradycardia (%) [2, 13]: 66.7%
Extrasystoles (%) [2, 13]: 50.0%
Bigeminy (%) [2, 14]: 16.7%
Blocks (%) [2, 14]: 33.3%
Bradycardia (%) [2, 14]: 50.0%
Extrasystoles (%) [2, 14]: 33.3%
influence on ECG parameters (PQ interval, QRS complex, QTc interval) (normal ECG in rats): did not influence the ECG parameters
Beats/min (ECG) (normal ECG in rats; 0 min (initial values)): 353.8 ± 10.2 Beats/min
PQ (ECG) (normal ECG in rats; 0 min (initial values)): 48.7 ± 1.0 ms
QRS (ECG) (normal ECG in rats; 0 min (initial values)): 25.7 ± 0.7 ms
QT (ECG) (normal ECG in rats; 0 min (initial values)): 87.3 ± 1.4 ms
QTc (ECG, Bazett) (normal ECG in rats; 0 min (initial values)): 212.0 ± 5.0 ms
Beats/min (ECG) (normal ECG in rats; 5 min): 365.4 ± 15.3 Beats/min
PQ (ECG) (normal ECG in rats; 5 min): 48.4 ± 0.5 ms
QRS (ECG) (normal ECG in rats; 5 min): 26.3 ± 0.9 ms
QT (ECG) (normal ECG in rats; 5 min): 86.5 ± 1.3 ms
QTc (ECG, Bazett) (normal ECG in rats; 5 min): 213.6 ± 7.0 ms
Beats/min (ECG) (normal ECG in rats; 10 min): 350.8 ± 10.5 Beats/min
PQ (ECG) (normal ECG in rats; 10 min): 48.2 ± 1.0 ms
QRS (ECG) (normal ECG in rats; 10 min): 26.1 ± 1.1 ms
QT (ECG) (normal ECG in rats; 10 min): 87.2 ± 2.0 ms
QTc (ECG, Bazett) (normal ECG in rats; 10 min): 211.3 ± 6.2 ms
Beats/min (ECG) (normal ECG in rats; 15 min): 333.9 ± 12.4 Beats/min
PQ (ECG) (normal ECG in rats; 15 min): 46.6 ± 0.9 ms
QRS (ECG) (normal ECG in rats; 15 min): 25.6 ± 1.2 ms
QT (ECG) (normal ECG in rats; 15 min): 87.5 ± 2.0 ms
QTc (ECG, Bazett) (normal ECG in rats; 15 min): 207.1 ± 6.8 ms
Beats/min (ECG) (normal ECG in rats; 20 min): 327.6 ± 20.3 Beats/min
PQ (ECG) (normal ECG in rats; 20 min): 47.6 ± 0.5 ms
QRS (ECG) (normal ECG in rats; 20 min): 26.3 ± 0.5 ms
QT (ECG) (normal ECG in rats; 20 min): 87.2 ± 0.6 ms
QTc (ECG, Bazett) (normal ECG in rats; 20 min): 203.7 ± 7.2 ms
Beats/min (ECG) (normal ECG in rats; 30 min): 340.1 ± 17.7 Beats/min
PQ (ECG) (normal ECG in rats; 30 min): 46.1 ± 0.3 ms
QRS (ECG) (normal ECG in rats; 30 min): 26.4 ± 0.9 ms
QT (ECG) (normal ECG in rats; 30 min): 86.7 ± 1.1 ms
QTc (ECG, Bazett) (normal ECG in rats; 30 min): 206.4 ± 7.9 ms
Beats/min (ECG) (normal ECG in rats; 40 min): 339.5 ± 20.4 Beats/min
PQ (ECG) (normal ECG in rats; 40 min): 46.1 ± 0.7 ms
QRS (ECG) (normal ECG in rats; 40 min): 28.0 ± 0.9 ms
QT (ECG) (normal ECG in rats; 40 min): 87.0 ± 1.5 ms
QTc (ECG, Bazett) (normal ECG in rats; 40 min): 206.5 ± 6.6 ms
Beats/min (ECG) (normal ECG in rats; 50 min): 350.1 ± 17.9 Beats/min
PQ (ECG) (normal ECG in rats; 50 min): 47.5 ± 0.7 ms
QRS (ECG) (normal ECG in rats; 50 min): 26.1 ± 1.2 ms
QT (ECG) (normal ECG in rats; 50 min): 88.2 ± 0.8 ms
QTc (ECG, Bazett) (normal ECG in rats; 50 min): 212.7 ± 6.9 ms
Beats/min (ECG) (normal ECG in rats; 60 min): 351.8 ± 15.0 Beats/min
PQ (ECG) (normal ECG in rats; 60 min): 48.0 ± 1.1 ms
QRS (ECG) (normal ECG in rats; 60 min): 26.3 ± 0.5 ms
QT (ECG) (normal ECG in rats; 60 min): 88.5 ± 2.2 ms
QTc (ECG, Bazett) (normal ECG in rats; 60 min): 213.9 ± 7.2 ms
